Experimental findings from patent US10772324B2, “Aqueous adjuvant-compositions” (CLARIANT FINANCE (BVI) LIMITED, priority 2012, dated 2020) are described below.

Assay in all cases: Greenhouse trial: effect of adjuvants on activity of glyphosate IPA (fresh weight)
Type in all cases: in vivo

For assay [1], the system named is Cirsium arvense L. (CIRAR). Particulars: fresh weight relative to untreated plant, 14 days after application; 20.3 g a.e./ha glyphosate IPA; adjuvant 0.25 wt % in spray solution. The procedure: (§1) For the purpose of determining the biological activity, greenhouse trials were carried out with glyphosate on Echinochloa crus-galli (L.) Beauv. (ECHCG), Cirsium arvense L. (CIRAR), and Solanum nigrum L. (SOLNI). The plants were cultivated in a greenhouse under 14 hours of irradiation with light at a temperature of 19/14 (±0.5°) C. (day/night) and a relative humidity of 70/80 (±5)% (day/night). The light was supplied via high-pressure sodium lamps, high-pressure mercury lamps, and fluorescent tubes, producing a power of 70 W/m^2 at the leaf level. The plants were grown in 12 cm diameter plastic pots filled with a mixture of sand and humus in a sand:humus ratio of 1:2 by volume.
(§2) The pots were placed on an under-soil watering mat, which was wetted daily with a medium-strength nutrient solution. Following their appearance at the substrate surface, seedlings were thinned out to five (ECHCG), two (CIRAR), or one (SOLNI) plant per pot for the activity tests.
(§3) The spray solutions were applied using a laboratory sprayer operated with compressed air and fitted with a Teejet TP8003E nozzle at an application rate of 200 l/ha to the plants at 303 kPa. ECHCG was treated at the two- to three-leaf stage; CIRAR and SOLNI were treated at the four-leaf stage.
(§4) For the more differentiated examination of the adjuvant effect, the glyphosate active ingredient was underdosed, meaning that the plants are not completely killed. This was done using aqueous solutions of glyphosate-isopropylammonium salt (glyphosate IPA). The amount of glyphosate used was 33.8 g a.e./ha glyphosate IPA (corresponding to 1.0 mmol or 0.17 g a.e./l for a liquid volume of […]) in the case of ECHCG, and at 20.3 g a.e./ha glyphosate IPA (corresponding to […] or 0.10 g a.e./l at a liquid volume of 200 l/ha) for CIRAR and SOLNI. […]
(§5) The activity of the various adjuvants was assessed 14 days after application, by determining the mass of the plant parts still present (fresh weight; FW), and was reported as a percentage fraction, relative to the untreated plant (Table 3).

The subject of assay [2] is Echinochloa crus-galli (L.) Beauv. (ECHCG). Particulars: fresh weight relative to untreated plant, 14 days after application; 33.8 g a.e./ha glyphosate IPA; adjuvant 0.25 wt % in spray solution. The procedure:
as §1, §2, §3, §4, §5

Assay [3] deals with Solanum nigrum L. (SOLNI). To be noted: fresh weight relative to untreated plant, 14 days after application; 20.3 g a.e./ha glyphosate IPA; adjuvant 0.25 wt % in spray solution. The procedure:
as §1, §2, §3, §4, §5

“glyphosate-isopropylammonium salt [Glyphosate IPA]”: the “FW in % (CIRAR)” value in assay [1] came out at 95.9%. Also, the “FW in % (ECHCG)” value in assay [2] was 74.3%. Moreover, in assay [3], the “FW in % (SOLNI)” value was 84.5%.
